Measurements reported in article PMC8583417, “Evaluation of the Antimicrobial Efficacy of N-Acetyl-L-Cysteine, Rhamnolipids, and Usnic Acid—Novel Approaches to Fight Food-Borne Pathogens” (International Journal of Molecular Sciences, 2021).
Values after ≈ are worked out from the molar mass of the structure shown.

Columns and labels:
[1] = system: cell lines HRTEC, HaCat, HDF, HEK 293, HCAEC; assay: Acute cytotoxicity, resazurin assay, summary over cell lines; assay type: cell-based, human; settings: 72 h
Excerpt: To test the acute cytotoxicity of the compounds, the following cell lines were used: primary human renal tubular epithelial cells (HRTEC; Evercyte, Vienna, Austria); human keratinocytes (HaCat; Thermo Fisher Scientific, Waltham, MA, USA); human dermal fibroblasts (HDF; Merck, Kenilworth, NJ, USA); human epithelial kidney cells (HEK 293; ATCC, Manassas, VI, USA); primary human coronary artery endothelial cells (HCAEC; ATCC, Manassas, VI, USA). The cell lines were maintained in a proper cultivation medium—HaCat, HDF, and Hek 293 in DMEM; HRTEC in VCB; HCAEC in ProxUp. The cytotoxicity experiment was realized according to Tran et al.. Briefly, the cells were counted by the Cellometer Auto T4 (Nexcelom Bioscience, Lawrence, MA, USA), and the cell suspension containing a cell density of 10^5 cells/mL was split into the 96-well plate, with 100 µL per well. The plates were then incubated for 24 h at 37 °C in a humidified atmosphere of 5% CO2. Then, the plates were washed three times with PBS, and the tested natural compounds were added using binary dilution in a proper medium. After 72 h of incubation, the cell viability was tested by resazurin assay. The fluorescence was measured by a SpectraMax i3× microplate reader (San Jose, CA, USA) at a wavelength of 560 nm excitation/590 nm emission.
The cytotoxicity results are expressed as the average IC50 ± standard error of the mean (SEM). […]

[2] = system: L. monocytogenes 149; assay: MIC for planktonic cell growth (A625nm); assay type: cell-based, Listeria monocytogenes; settings: ≥80% inhibition, 24 h
Method: (§1) Ten concentrations of NAC, RLs, and UA were tested to determine the minimum inhibitory concentration for planktonic growth, and subsequently, the six highest concentrations were applied on preformed biofilms to evaluate the biofilm eradication ability of the compounds. MIC was defined as the lowest substance concentration able to inhibit at least 80% of microbial growth (MICPC80 for planktonic cells, MICBC80 for further growth of biofilm cells), inhibit 80% of metabolic activity (MICBM80 for biofilm metabolic activity, MICMPB80 for metabolic activity of preformed biofilm), prevent biofilm formation by at least 80% (MICBF80 for biofilm formation), or reduce a preformed biofilm by at least 80% (MICBR80 for biofilm reduction). The results of MICs are summarized in Table 1 (planktonic cells) and Table 2 (biofilm-associated cells).
(§2) The determination of MICs was performed according to Chlumsky et al.. Briefly, 96-well flat-bottomed microtiter plates were inoculated with 75 µL (for biofilm formation) or 100 µL (for preformed biofilm) of bacterial suspension (A625nm 0.08 to 0.1) in technical triplicates and were then carefully mixed with the dilution series of the test substances (24 h cultivation at 25 °C for S. Infantis, 37 °C for other strains) or were directly cultivated to preform biofilms (18 h). For a positive control of bacterial growth, the inoculum was mixed with a pure sterile medium. […] To evaluate planktonic cells growth (MICPC80) and further growth of biofilm cells (MICBC80), the optical density of the content of the microtiter plates was measured spectrophotometrically at 625 nm before and after 24 h (for biofilm formation) of cultivation or before and after additional 20 h incubation with the tested compound (for preformed biofilm). […] To evaluate the inhibition of biofilm formation (MICBF80) and reduction in preformed biofilms (MICBR80), biomass was quantified using crystal violet staining, and its metabolic activity (MICBM80 and MICMPB80) was estimated by using the MTT (thiazyl tetrazolium bromide, Sigma-Aldrich, USA) reduction assay, both measured spectrophotometrically at 595 nm.
(§3) All inhibitions were calculated using the formula of Chlumsky et al. below (Equation (1)):(1) A625(595)nm inhibition (%)=A625(595)nm (control) – A625(595)nm(natural substance)/A625(595)nm (control)× 100 where A625(595)nm (control) is the absorbance of bacterial suspension/biofilm itself, and A625(595)nm(natural substance) is the absorbance of the bacterial suspension/biofilm with the added natural substance (NAC, RLs, and UA).
(§4) When the minimum inhibitory concentration could not be determined, the MIC was established as >the highest tested concentration for NAC, RLs, and UA.

[3] = system: L. monocytogenes 164; assay: MIC for planktonic cell growth (A625nm); assay type: cell-based, Listeria monocytogenes; settings: ≥80% inhibition, 24 h
Method: as §1, §2, §3, §4

[4] = system: L. monocytogenes 149; assay: MIC for biofilm formation (crystal violet staining); assay type: cell-based, Listeria monocytogenes; settings: ≥80% prevention, 24 h
Method: as §1, §2, §3, §4

[5] = system: L. monocytogenes 164; assay: as above; assay type: cell-based, Listeria monocytogenes; settings: ≥80% prevention, 24 h
Method: as §1, §2, §3, §4

[6] = system: S. Infantis S59; assay: as above; assay type: cell-based, Salmonella enterica Infantis; settings: for MICBF80: ≥80% prevention, 24 h
Method: as §1
(§5) The determination of MICs was performed according to Chlumsky et al.. Briefly, 96-well flat-bottomed microtiter plates were inoculated with 75 µL (for biofilm formation) or 100 µL (for preformed biofilm) of bacterial suspension (A625nm 0.08 to 0.1) in technical triplicates and were then carefully mixed with the dilution series of the test substances (24 h cultivation at 25 °C for S. Infantis, 37 °C for other strains) or were directly cultivated to preform biofilms (18 h). For a positive control of bacterial growth, the inoculum was mixed with a pure sterile medium. Furthermore, the sterile medium was included in the plate as a marker of potential microbial contamination. To evaluate planktonic cells growth (MICPC80) and further growth of biofilm cells (MICBC80), the optical density of the content of the microtiter plates was measured spectrophotometrically at 625 nm before and after 24 h (for biofilm formation) of cultivation or before and after additional 20 h incubation with the tested compound (for preformed biofilm). The difference of A625nm was considered as a measure of the ability of cells to grow in the presence of the tested substances. To evaluate the inhibition of biofilm formation (MICBF80) and reduction in preformed biofilms (MICBR80), biomass was quantified using crystal violet staining, and its metabolic activity (MICBM80 and MICMPB80) was estimated by using the MTT (thiazyl tetrazolium bromide, Sigma-Aldrich, USA) reduction assay, both measured spectrophotometrically at 595 nm.
as §3, §4

[7] = system: S. Infantis S13; assay: as above; assay type: cell-based, Salmonella enterica Infantis; settings: for MICBF80: ≥80% prevention, 24 h
Method: as §1, §5, §3, §4

[8] = system: S. Enteritidis ATCC 13076; assay: as above; assay type: cell-based, Salmonella enterica Enteritidis; settings: for MICBF80: ≥80% prevention, 24 h
Method: as §1
(§6) The determination of MICs was performed according to Chlumsky et al.. […] To evaluate planktonic cells growth (MICPC80) and further growth of biofilm cells (MICBC80), the optical density of the content of the microtiter plates was measured spectrophotometrically at 625 nm before and after 24 h (for biofilm formation) of cultivation or before and after additional 20 h incubation with the tested compound (for preformed biofilm). […] To evaluate the inhibition of biofilm formation (MICBF80) and reduction in preformed biofilms (MICBR80), biomass was quantified using crystal violet staining, and its metabolic activity (MICBM80 and MICMPB80) was estimated by using the MTT (thiazyl tetrazolium bromide, Sigma-Aldrich, USA) reduction assay, both measured spectrophotometrically at 595 nm.
as §3, with “UA). […]” for “UA).”

[9] = system: L. monocytogenes 149; assay: MIC for reduction of preformed biofilm (crystal violet staining); assay type: cell-based, Listeria monocytogenes; settings: for MICBR80: ≥80% reduction of preformed biofilm (18 h), 20 h with substance
Method: as §1, §5, §3, §4

[10] = system: L. monocytogenes 164; assay: as above; assay type: cell-based, Listeria monocytogenes; settings: for MICBR80: ≥80% reduction of preformed biofilm (18 h), 20 h with substance
Method: as §1, §5, §3, §4

[11] = system: S. Enteritidis ATCC 13076; assay: MIC for further growth of biofilm cells, preformed biofilm (A625nm); assay type: cell-based, Salmonella enterica Enteritidis; settings: for MICBC80: ≥80% inhibition, 18 h preformed biofilm, 20 h with substance
Method: as §1, §6
as §3, with “UA). […]” for “UA).”

[12] = system: L. monocytogenes 149; assay: as above; assay type: cell-based, Listeria monocytogenes; settings: ≥80% inhibition, 18 h preformed biofilm, 20 h with substance
Method: as §1, §2, §3, §4

[13] = system: L. monocytogenes 164; assay: as above; assay type: cell-based, Listeria monocytogenes; settings: ≥80% inhibition, 18 h preformed biofilm, 20 h with substance
Method: as §1, §2, §3, §4

[14] = system: S. Infantis S13; assay: as above; assay type: cell-based, Salmonella enterica Infantis; settings: for MICBC80: ≥80% inhibition, 18 h preformed biofilm, 20 h with substance
Method: as §1, §5, §3, §4

[15] = system: S. Enteritidis ATCC 13076; assay: MIC for biofilm metabolic activity (MTT reduction assay); assay type: cell-based, Salmonella enterica Enteritidis; settings: for MICBM80: ≥80% inhibition, 24 h
Method: as §1, §6
as §3, with “UA). […]” for “UA).”

[16] = preformed biofilm, within tested concentrations

| SMILES | MICPC80 [2] | MICPC80 [3] | MICBF80 [4] | MICBF80 [5] | MICBF80 [6] | MICBF80 [7] | MICBF80 [8] | MICBR80 [9] | MICBR80 [10] | MICBC80 [11] | MICBC80 [12] | MICBC80 [13] | MICBC80 [14] | MICBM80 [15] | further results |
| --- | --- | --- | --- | --- | --- | --- | --- | --- | --- | --- | --- | --- | --- | --- | --- |
| CC(=O)c1c(O)c(C)c(O)c2c1OC1=CC(=O)C(C(C)=O)C(=O)C12C (single isomer, unassigned; (+)) [UA, (+)-usnic acid] | 0.98 µg/mL | 1.96 µg/mL | 0.98 µg/mL | 1.96 µg/mL | > 31.3 µg/mL | > 31.3 µg/mL | > 31.3 µg/mL | > 31.3 µg/mL | 1.96 µg/mL | > 31.3 µg/mL | 1.96 µg/mL | 1.96 µg/mL | > 31.3 µg/mL | > 31.3 µg/mL | IC50, range over cell lines [1]: 0.03 to 4.35 µg/mL; maximal achieved inhibition (MICBF80 not reached) ([6]; within tested concentrations): 34%; maximal achieved inhibition (MICBF80 not reached) ([7]; within tested concentrations): 45%; maximal achieved inhibition (MICBF80 not reached) ([8]; within tested concentrations): 25%; maximal achieved inhibition (MICBR80 not reached), biofilm reduction [9, 16]: 69%; maximal achieved inhibition (MICBC80 not reached) ([11]; within tested concentrations): 51%; maximal achieved inhibition (MICBC80 not reached) ([14]; within tested concentrations): 33%; maximal achieved inhibition (MICBM80 not reached) ([15]; within tested concentrations): 45% |
| CC(=O)N[C@@H](CS)C(=O)O [NAC, N-Acetyl-L-cysteine] | 3130 µg/mL | 6250 µg/mL | 6250 µg/mL | 6250 µg/mL | 6250 µg/mL | 12,500 µg/mL | 12,500 µg/mL | 100,000 µg/mL | > 100,000 µg/mL | 6250 µg/mL | 3130 µg/mL | 3130 µg/mL | 6250 µg/mL | 12,500 µg/mL | IC50 ([1]; Homo sapiens, read-out: IC50, range over cell lines): 460 to 4020 µg/mL (≈ 2820 to 24600 µM); maximal achieved inhibition (MICBR80 not reached), biofilm reduction [10, 16]: 46% |
